Experimental data reported in patent US20110053982A1, “ETHER BENZYLIDENE PIPERIDINE 5-MEMBERED ARYL CARBOXAMIDE COMPOUNDS USEFUL AS FAAH INHIBITORS” (PFIZER INC., priority 2008, published 2011).

Key:
Human FAAH = biological target: T1, Human FAAH (Homo sapiens, UniProt O00519); assay: FAAH assay, kinetic analysis of irreversible inhibition (kinact/Ki); format: biochemical; details: additional data table, unit inferred, read-out: hFAAH_Kinact/Ki
T1 construct: made in house
T1 sequence (O00519 32-579 limits assumed): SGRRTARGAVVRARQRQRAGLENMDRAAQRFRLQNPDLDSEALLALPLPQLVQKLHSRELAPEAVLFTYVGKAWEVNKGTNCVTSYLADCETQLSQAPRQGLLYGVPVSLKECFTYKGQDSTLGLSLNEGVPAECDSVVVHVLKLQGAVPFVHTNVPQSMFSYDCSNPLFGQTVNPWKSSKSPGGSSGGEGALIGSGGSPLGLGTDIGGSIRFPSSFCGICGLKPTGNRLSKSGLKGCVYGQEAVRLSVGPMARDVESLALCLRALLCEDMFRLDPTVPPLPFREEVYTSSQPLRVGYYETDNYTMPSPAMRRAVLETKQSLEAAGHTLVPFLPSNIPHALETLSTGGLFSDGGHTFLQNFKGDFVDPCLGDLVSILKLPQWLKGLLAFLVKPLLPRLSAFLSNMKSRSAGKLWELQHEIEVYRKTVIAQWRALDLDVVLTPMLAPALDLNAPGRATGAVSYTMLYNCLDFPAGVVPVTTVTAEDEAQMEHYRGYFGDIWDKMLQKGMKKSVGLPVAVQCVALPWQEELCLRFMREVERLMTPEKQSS
Description: A FAAH assay may be carried out in 384-well clear polystyrene plates in a total volume of 50 μl per well. All percents are by volume. To each well is placed the reaction mixture (40 μl) containing 1-4 nM FAAH, 50 mM NaPi, pH 7.4, 3 mM α-ketoglutarate, 0.15 mM NADH, 7.5 U/ml glutamate dehydrogenase, 2 mM ADP, 1 mM EDTA, and 0.1% Triton X-100 (The concentration shown for each component is the final concentration in the assay). To this mixture is added 5 μl of a compound of Examples 1 to 20 at various concentrations prepared in 50% DMSO (or 5 μl 50% DMSO for controls). This is immediately followed by the addition of 5 μl oleamide (500 μM) dissolved in […] and the reaction mixture is mixed for 1.5 min. The final concentrations of DMSO and EtOH in the assay are each 7.5%. The reactions is then incubated at 30° C. and the absorbance at 340 nm is collected over a period of 90 min with readings taken in 30-second intervals using SpectraMax Plus^384 Microplate Spectrophotometer (Molecular Devices, Sunnyvale, Calif.). Human FAAH used in the assay is prepared as described in the patent application WO 2006/067613. The purity of the enzyme used is preferably greater than 98% based on an analysis by SDS-polyacrylamide gel electrophoresis followed by Coomassie Blue staining.
Initial velocity data (V) is obtained from the slopes of the initial progressive curves. They are plotted as a function of substrate concentration and fit to the Michaelis-Menten equation (1) using Prism (GraphPad Software, Inc., San Diego, Calif.) software to obtain Km and Vmax values.
To obtain potencies of irreversible inhibitors, progressive curves consistent with first order inhibition kinetics (two-step irreversible inhibition mechanism) are fit to equation (2) by nonlinear least squares regressions to determine kobs values at each inhibitor concentration, where [P]t is the absorbance at time t, V0 is a constant related to the steady state rate of the uninhibited reaction, and kobs is the first order rate constant for enzyme inactivation. The inhibitor dissociation constant (Ki) and the first order rate
constant of enzyme inactivation at infinite inhibitor concentration (kinact) are then obtained by fitting the kobs vs. [I] curves to equation (3).

rFAAH = biological target: T2, rFAAH (Rattus norvegicus, UniProt P97612); assay: FAAH assay, rFAAH kobs/I; format: biochemical; details: additional data table, unit not given
T2 sequence (P97612 1-579): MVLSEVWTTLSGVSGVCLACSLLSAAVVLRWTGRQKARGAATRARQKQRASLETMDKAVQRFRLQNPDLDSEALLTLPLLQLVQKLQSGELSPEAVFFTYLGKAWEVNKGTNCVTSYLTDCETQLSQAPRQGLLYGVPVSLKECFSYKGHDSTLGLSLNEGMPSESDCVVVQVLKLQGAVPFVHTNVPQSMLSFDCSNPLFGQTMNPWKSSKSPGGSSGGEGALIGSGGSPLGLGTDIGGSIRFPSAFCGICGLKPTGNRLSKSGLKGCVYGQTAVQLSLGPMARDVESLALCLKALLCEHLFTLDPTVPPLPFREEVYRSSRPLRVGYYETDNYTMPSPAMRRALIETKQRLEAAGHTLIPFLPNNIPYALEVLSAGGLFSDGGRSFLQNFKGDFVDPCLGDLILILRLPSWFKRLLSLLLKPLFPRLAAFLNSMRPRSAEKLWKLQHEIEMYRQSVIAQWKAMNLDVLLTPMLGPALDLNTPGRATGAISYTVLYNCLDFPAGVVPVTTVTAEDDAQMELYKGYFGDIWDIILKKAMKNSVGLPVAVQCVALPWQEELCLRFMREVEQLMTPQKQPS

SMILES	kinact/KI (Human FAAH)	FAAH_KINACTR:rFAAH:kobs/I (rFAAH)
Cc1ncsc1CCOc1cccc(C=C2CCN(C(=O)Nc3cnoc3)CC2)c1 [N-isoxazol-4-yl-4-{3-[2-(4-methyl-1,3-thiazol-5-yl)ethoxy]benzylidene}piperidine-1-carboxamide]	514 M⁻¹ s⁻¹	<10.0
Cc1noc(NC(=O)N2CCC(=Cc3cccc(OCCCC(F)(F)F)c3)CC2)c1C [N-(3,4-dimethylisoxazol-5-yl)-4-[3-(4,4,4-trifluorobutoxy)benzylidene]piperidine-1-carboxamide]	12900 M⁻¹ s⁻¹	1540
Cc1oncc1NC(=O)N1CCC(=Cc2cccc(OCCc3ccc(F)cc3)c2)CC1 [4-{3-[2-(4-fluorophenyl)ethoxy]benzylidene}-N-(5-methylisoxazol-4-yl)piperidine-1-carboxamide]	1480 M⁻¹ s⁻¹	52.7
Cc1noc(NC(=O)N2CCC(=Cc3cccc(OCCC(C)C)c3)CC2)c1C [N-(3,4-dimethylisoxazol-5-yl)-4-[3-(3-methylbutoxy)benzylidene]piperidine-1-carboxamide]	7710 M⁻¹ s⁻¹	2590
Cc1oncc1NC(=O)N1CCC(=Cc2cccc(OCC3CCCC3)c2)CC1 [4-[3-(cyclopentylmethoxy)benzylidene]-N-(5-methylisoxazol-4-yl)piperidine-1-carboxamide]	838 M⁻¹ s⁻¹	<10.0
Cc1oncc1NC(=O)N1CCC(=Cc2cccc(OCCCc3cnoc3)c2)CC1 [4-[3-(3-isoxazol-4-ylpropoxy)benzylidene]-N-(5-methylisoxazol-4-yl)piperidine-1-carboxamide]	3990 M⁻¹ s⁻¹	<13.2
Cc1oncc1NC(=O)N1CCC(=Cc2cccc(OCCc3cccc(F)c3)c2)CC1 [4-{3-[2-(3-fluorophenyl)ethoxy]benzylidene}-N-(5-methylisoxazol-4-yl)piperidine-1-carboxamide]	11000 M⁻¹ s⁻¹	59.9
CCCCOc1cccc(C=C2CCN(C(=O)Nc3cnoc3C)CC2)c1 [4-(3-butoxybenzylidene)-N-(5-methylisoxazol-4-yl)piperidine-1-carboxamide]	2120 M⁻¹ s⁻¹	12.9

More lines, now with the values ahead:

kinact/KI (Human FAAH)	FAAH_KINACTR:rFAAH:kobs/I (rFAAH)	SMILES
12800 M⁻¹ s⁻¹	7550	Cc1noc(NC(=O)N2CCC(=Cc3cccc(OCCc4ccc(F)cc4)c3)CC2)c1C [N-(3,4-dimethylisoxazol-5-yl)-4-{3-[2-(4-fluorophenyl)ethoxy]benzylidene}piperidine-1-carboxamide]
4920 M⁻¹ s⁻¹	1920	Cc1ncsc1CCOc1cccc(C=C2CCN(C(=O)Nc3onc(C)c3C)CC2)c1 [N-(3,4-dimethylisoxazol-5-yl)-4-{3-[2-(4-methyl-1,3-thiazol-5-yl)ethoxy]benzylidene}piperidine-1-carboxamide]
13900 M⁻¹ s⁻¹	7840	Cc1cccc(OCCOc2cccc(C=C3CCN(C(=O)Nc4onc(C)c4C)CC3)c2)c1 [N-(3,4-dimethylisoxazol-5-yl)-4-{3-[2-(3-methylphenoxy)ethoxy]benzylidene}piperidine-1-carboxamide]
5110 M⁻¹ s⁻¹	2360	Cc1noc(NC(=O)N2CCC(=Cc3cccc(OCC4CCCC4)c3)CC2)c1C [4-[3-(cyclopentylmethoxy)benzylidene]-N-(3,4-dimethylisoxazol-5-yl)piperidine-1-carboxamide]
3410 M⁻¹ s⁻¹	10600	Cc1noc(NC(=O)N2CCC(=Cc3cccc(OC(C)Cc4ccccc4)c3)CC2)c1C (centres unmarked) [N-(3,4-dimethylisoxazol-5-yl)-4-[3-(1-methyl-2-phenylethoxy)benzylidene]piperidine-1-carboxamide]
